Our source for the inhibition values is US5922871A, “Terephthalamide derivatives” (Dongwha Pharmaceutical Ind. Co., Ltd., priority 1997, dated 1999).

Structures are written as SMILES.

For test [1], the target named is T1, HIV reverse transcriptase (HIV-RT) (Human immunodeficiency virus type 1 group M subtype B, UniProt P04585).
T1 construct: purchased Boehringer Mannheim
As to the kind of experiment: in vitro inhibition test against HIV reverse transcriptase. It is filed as biochemical, HIV (AIDS virus). The note with it: read-out: Inhibitory effect of HIV-RT; for inhibition at 0.1 µg/mL: 0.1 μg/ml; for inhibition at 1 µg/mL: 1 μg/ml. The procedure: Experiment 3: The in vitro inhibition test against HIV reverse transcriptase
The inhibitory activity in vitro was measured using a non-radioactive reverse transcriptase assay Kit (Boehringer Mannheim).
At first, 20 μl(40 ng) HIV-RT was added to the wells coated with streptavidin and with the addition of 20 μl, reaction mixture containing template/primer hybrid poly(A)/oligo(dT)15 and DIG-(digoxigenin)-dUTP, biotin-dUTP and TTP, 20 μl test compound was added and reacted at 37° C. for 1 hour. The control without test compound was used for the comparison of related activity. Since DNA containing nucleotide labeled with digoxigenin and biotine was prepared by the action of HIV-RT, it was combined with streptavidin coated at the bottom of the wells. After the reaction was completed, remaining impurities were removed by washing each well with 20 μl buffer solution (pH 7.0) for 30 seconds 5 times and with the addition of 200 μl anti-DIG-POD antibody, the mixture was reacted at 37° C. for 1 hour. For the removal of remaining impurities again, the reacting solution was washed with a buffer solution and with the addition of 200μl ABTS™ each, a substrate of POD(peroxidase), the solution was reacted at room temperature for 30 minutes. The absorbance was read by ELISA reader at 405 nm for the assay of reverse transcriptase activity and its inhibition activity.

Test [2] has as its target T2, HBV polymerase reverse transcriptase (HBV-RT) (Hepatitis B virus genotype D subtype ayw, UniProt P03156).
T2 construct: made in house; host or cells: E. coli
As to the kind of experiment: inhibitory activity against HBV polymerase in vitro (reverse transcriptase activity). The note with it: read-out: Inhibitory effect of HBV-RT; for inhibition at 0.1 µg/mL: 0.1 μg/ml; for inhibition at 1 µg/mL: 1 μg/ml. It is filed as biochemical. An excerpt:
Experiment 1: The inhibitory activity against HBV polymerase in vitro.
Recently, the inventors of the present invention have produced a recombinant HBV polymerase that is expressed from E.coli transformant, measured its enzyme activity and filed patent applications thereof [Korean Patent Application Nos. 94-3918, 96-33998 and 96-63255].
The inventions have established a method of measuring the reverse transcriptase activity of HBV polymerase in vitro. The fundamental principle is the same as the ELISA method, and after reacting the substrate with biotin- and DIG-modified nucleotide, a method of recognizing the polymerized substrate as anti-DIG antibody with peroxidase was used. […] and 20 μ of test compound were mixed and reacted at 14~30° C. for 18~24 hours. Then, the inhibitory effect of test compound against reverse trascriptase activity in the HBV polymerase was examined, compared with the results of control tests without the test compound.

T2 sequence (P03156 whole entry): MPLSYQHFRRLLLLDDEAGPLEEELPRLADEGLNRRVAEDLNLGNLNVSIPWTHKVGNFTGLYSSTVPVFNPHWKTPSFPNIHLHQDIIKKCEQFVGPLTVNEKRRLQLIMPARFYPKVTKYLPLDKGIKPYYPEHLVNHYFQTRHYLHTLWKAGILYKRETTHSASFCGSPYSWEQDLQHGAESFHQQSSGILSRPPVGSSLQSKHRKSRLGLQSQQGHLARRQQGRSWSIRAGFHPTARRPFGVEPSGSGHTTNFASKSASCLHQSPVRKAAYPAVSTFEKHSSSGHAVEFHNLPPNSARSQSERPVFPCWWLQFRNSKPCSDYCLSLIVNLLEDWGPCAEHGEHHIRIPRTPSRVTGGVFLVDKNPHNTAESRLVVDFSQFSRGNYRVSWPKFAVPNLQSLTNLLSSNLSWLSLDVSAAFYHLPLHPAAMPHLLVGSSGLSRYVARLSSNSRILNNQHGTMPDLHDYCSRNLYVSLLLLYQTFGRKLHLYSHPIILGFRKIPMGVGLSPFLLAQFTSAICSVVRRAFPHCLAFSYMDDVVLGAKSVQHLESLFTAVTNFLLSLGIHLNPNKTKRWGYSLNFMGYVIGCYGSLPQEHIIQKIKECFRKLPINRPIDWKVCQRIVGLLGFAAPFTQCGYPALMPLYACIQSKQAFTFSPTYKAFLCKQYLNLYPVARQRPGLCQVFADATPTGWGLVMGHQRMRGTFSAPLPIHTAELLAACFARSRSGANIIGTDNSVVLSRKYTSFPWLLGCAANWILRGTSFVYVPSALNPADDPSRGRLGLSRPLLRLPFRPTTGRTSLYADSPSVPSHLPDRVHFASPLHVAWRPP

On to `CC(C)Nc1cccnc1N1CCN(C(=O)c2ccc(C(=O)N3CCOCC3)cc2)CC1` [Compound No. 76, 4-[1-[3-(Isopropylamino)-2-pyridyl]piperazin-4-yl-carbonyl]-1-(morpholin-4-yl-carbonyl)benzene], for which the values for the inhibition at 0.1 µg/mL in test [1] and in test [2] were 43% and 49%, respectively. Moreover, the results for the inhibition at 1 µg/mL in test [1] and in test [2] were 52% and 79%, respectively.

As for `CC(C)Nc1cccnc1N1CCN(C(=O)c2ccc(C(=O)N[C@@H](CO)C(C)C)cc2)CC1` [Compound No. 39, 1-[N-[(1R)-2-Hydroxy-1-(1-methylethyl)ethyl]carbamoyl]-4-[1-[3-(isopropylamino)-2-pyridyl]piperazin-4-yl-carbonyl]benzene], in test [1], the inhibition at 0.1 µg/mL came out at 25% and the inhibition at 1 µg/mL was 75%. In test [2], the inhibition at 0.1 µg/mL was 30% and the inhibition at 1 µg/mL is 78%.

`CC(C)Nc1cccnc1N1CCN(C(=O)c2ccc(C(=O)N(C)CCO)cc2)CC1` [Compound No. 5, 1-[N-(2-Hydroxyethyl)-N-methylcarbamoyl]-4-[1-[3-(isopropylamino)-2-pyridyl]piperazin-4-yl-carbonyl]benzene]: in test [1], the inhibition at 0.1 µg/mL was found to be 43% and the inhibition at 1 µg/mL came to 71%. In addition, in test [2], the inhibition at 0.1 µg/mL was 40% and the inhibition at 1 µg/mL amounted to 48%.

Take `CC(O)CN(CC(C)O)C(=O)c1ccc(C(=O)N2CCN(c3ncccc3NC(C)C)CC2)cc1` (centres unmarked) [Compound No. 16, 1-[N,N-Bis(2-hydroxypropyl)carbamoyl]-4-[1-[3-(isopropylamino)-2-pyridyl]piperazin-4-yl-carbonyl]benzene]: the inhibition at 0.1 µg/mL in test [1] turned out to be 52%; in test [2], 45%. Further, the inhibition at 1 µg/mL in test [1] amounted to 65%; in test [2] it was 78%.

As to `CC(C)Nc1cccnc1N1CCN(C(=O)c2ccc(C(=O)N(CCO)c3ccccc3)cc2)CC1` [Compound No. 11, 1-[N-(2-Hydroxyethyl)-N-phenylcarbamoyl]-4-[1-[3-(isopropylamino)-2-pyridyl]piperazin-4-yl-carbonyl]benzene], in test [1], the inhibition at 0.1 µg/mL worked out at 43% and the inhibition at 1 µg/mL was determined as 50%. In test [2], the inhibition at 0.1 µg/mL stood at 20% and the inhibition at 1 µg/mL is 76%.

As for `CC(C)Nc1cccnc1N1CCN(C(=O)c2ccc(C(=O)N[C@H](CO)CC3CCCCC3)cc2)CC1` [Compound No. 47, 1-[N-[(1S)-1-(Cyclohexylmethyl)-2-hydroxyethyl]carbamoyl]-4-[1-[3-(isopropylamino)-2-pyridyl]piperazin-4-yl-carbonyl]benzene], in test [1], the inhibition at 0.1 µg/mL was determined as 43% and the inhibition at 1 µg/mL is 54%.

Turning to `CC(C)Nc1cccnc1N1CCN(C(=O)c2ccc(C(=O)N3CCSCC3)cc2)CC1` [Compound No. 77, 4-[1-[3-(Isopropylamino)-2-pyridyl]piperazin-4-yl-carbonyl]-1-(thiomorpholin-4-yl-carbonyl)benzene], in test [1], the inhibition at 0.1 µg/mL stood at 28% and the inhibition at 1 µg/mL was determined as 40%.

With `CC(C)Nc1cccnc1N1CCN(C(=O)c2ccc(C(=O)N[C@H](CO)C(C)C)cc2)CC1` [Compound No. 38, 1-[N-[(1S)-2-Hydroxy-1-(1-methylethyl)ethyl]carbamoyl]-4-[1-[3-(isopropylamino)-2-pyridyl]piperazin-4-yl-carbonyl]benzene], in test [1], the inhibition at 0.1 µg/mL was 20% and the inhibition at 1 µg/mL is 78%. Also, in test [2], the inhibition at 0.1 µg/mL was 50% and the inhibition at 1 µg/mL was found to be 67%.

As for `CCN1CCN(C(=O)c2ccc(C(=O)N3CCN(c4ncccc4NC(C)C)CC3)cc2)CC1` [Compound No. 21, 4-Ethyl-1-[4-[1-[3-(isopropylamino)-2-pyridyl]piperazin-4-yl-arbonyl]benzoyl]piperazine], in test [1], the inhibition at 0.1 µg/mL stood at 20% and the inhibition at 1 µg/mL was 64%.

On to `CC(C)Nc1cccnc1N1CCN(C(=O)c2ccc(C(=O)NCCCN3CCOCC3)cc2)CC1` [Compound No. 80, 4-[1-[3-(Isopropylamino)-2-pyridyl]piperazin-4-yl-carbonyl]-1-[N-[3-(morpholin-4-yl)propyl]carbamoyl]benzene], for which, in test [1], the inhibition at 0.1 µg/mL came out at 43% and the inhibition at 1 µg/mL was 56%. In test [2], the inhibition at 0.1 µg/mL came to 40% and the inhibition at 1 µg/mL amounted to 66%.

With `CC(C)Nc1cccnc1N1CCN(C(=O)c2ccc(C(=O)N[C@@H](C)CO)cc2)CC1` [Compound No. 35, 1-[N-[(1S)-2-Hydroxy-1-methylethyl]carbamoyl]-4-[1-[3-(isopropylamino)-2-pyridyl]piperazin-4-yl-carbonyl]benzene], in test [2], the inhibition at 0.1 µg/mL came out at 62% and the inhibition at 1 µg/mL worked out at 82%.

Consider `CCNc1cccnc1N1CCN(C(=O)c2ccc(C(=O)N3CCN(CCO)CC3)cc2)CC1` [Compound No. 33, 1-[4-[1-[3-(Ethylamino)-2-pyridyl]piperazin-4-yl-carbonyl]benzoyl]-4-(2-hydroxyethyl)piperazine], for which, in test [2], the inhibition at 0.1 µg/mL is 37% and the inhibition at 1 µg/mL was determined as 69%.

Turning to `CC(C)Nc1cccnc1N1CCN(C(=O)c2ccc(C(=O)NCC3CCCO3)cc2)CC1` (centres unmarked) [Compound No. 72, 4-[1-[3-(Isopropylamino)-2-pyridyl]piperazin-4-yl-carbonyl]-1-[N-[(tetrahydrofuran-2-yl)methyl]carbamoyl]benzene], in test [2], the inhibition at 0.1 µg/mL is 51% and the inhibition at 1 µg/mL is 63%.

Consider `CC(C)Nc1cccnc1N1CCN(C(=O)c2ccc(C(=O)NCCOCCO)cc2)CC1` [Compound No. 17, 1-[N-[2-(2-Hydroxyethoxy)ethyl]carbamoyl]-4-[1-[3-(isopropylamino)-2-pyridyl]piperazin-4-yl-carbonyl]benzene], for which, in test [1], the inhibition at 0.1 µg/mL turned out to be 35% and the inhibition at 1 µg/mL was found to be 53%.

Consider `CC(C)Nc1cccnc1N1CCN(C(=O)c2ccc(C(=O)N(C(C)C)C(C)C)cc2)CC1` [Compound No. 14, 1-[N,N-Bis(1-methylethyl)carbamoyl]-4-[1-[3-(isopropylamino)-2-pyridyl]piperazin-4-yl-carbonyl]benzene], for which, in test [1], the inhibition at 0.1 µg/mL amounted to 52% and the inhibition at 1 µg/mL was found to be 59%.

As to `CC(C)Nc1cccnc1N1CCN(C(=O)c2ccc(C(=O)NC[C@H](C)O)cc2)CC1` [Compound No. 56, 1-[N-[(2S)-2-Hydroxypropyl]carbamoyl]-4-[1-[3-(isopropylamino)-2-pyridyl]piperazin-4-yl-carbonyl]benzene], in test [2], the inhibition at 0.1 µg/mL came out at 58% and the inhibition at 1 µg/mL came out at 76%.

As to `CCN(CC)C(=O)c1ccc(C(=O)N2CCN(c3ncccc3NC(C)C)CC2)cc1` [Compound No. 13, 1-[N,N-Diethylcarbamoyl]-4-[1-[3-(isopropylamino)-2-pyridyl]piperazin-4-yl-carbonyl]benzene], in test [2], the inhibition at 0.1 µg/mL turned out to be 55% and the inhibition at 1 µg/mL was 70%.

Regarding `CC(C)Nc1cccnc1N1CCN(C(=O)c2ccc(C(=O)NCCN3CCCCC3)cc2)CC1` [Compound No. 81, 4-[1-[3-(Isopropylamino)-2-pyridyl]piperazin-4-yl-carbonyl]-1-[N-[2-(piperidin-1-yl)ethyl]carbamoyl]benzene], in test [1], the inhibition at 0.1 µg/mL turned out to be 32% and the inhibition at 1 µg/mL was 60%.

Consider `CC(C)Nc1cccnc1N1CCN(C(=O)c2ccc(C(=O)N3CCN(C)CC3)cc2)CC1` [Compound No. 20, 1-[4-[1-[3-(Isopropylamino)-2-pyridyl]piperazin-4-yl-carbonyl]benzoyl]-4-methylpiperazine], for which, in test [2], the inhibition at 0.1 µg/mL worked out at 43% and the inhibition at 1 µg/mL worked out at 58%.

For `CCCN(CCO)C(=O)c1ccc(C(=O)N2CCN(c3ncccc3NC(C)C)CC2)cc1` [Compound No. 7, 1-[N-(2-Hydroxyethyl)-N-propylcarbamoyl]-4-[1-[3-(isopropylamino)-2-pyridyl]piperazin-4-yl-carbonyl]benzene], in test [1], the inhibition at 0.1 µg/mL was 21% and the inhibition at 1 µg/mL was 60%.

For the molecule `CCNc1cccnc1N1CCN(C(=O)c2ccc(C(=O)N(CC)CCO)cc2)CC1` [Compound No. 18, 1-[N-Ethyl-N-(2-hydroxyethyl)carbamoyl]-4-[1-[3-(ethylamino)-2-pyridyl]piperazin-4-yl-carbonyl]benzene], in test [2], the inhibition at 0.1 µg/mL came to 28% and the inhibition at 1 µg/mL was 63%.
